Experimental data published in patent US11058780B2, “Palpable marker composition” (TECHNICAL UNIVERSITY OF DENMARK, priority 2016, dated 2021).

Assay: Solubility in ethanol and doping of iodo-SAIB into SAIB
Format: physicochemical
Settings: neat LOIB

- solubility in anhydrous EtOH: readily dissolves
SMILES: CC(C)C(=O)OC[C@H]1O[C@@H](O[C@H]2[C@H](OC(=O)C(C)C)[C@@H](OC(=O)C(C)C)C(OC(=O)C(C)C)O[C@@H]2COC(=O)C(C)C)[C@H](OC(=O)C(C)C)[C@@H](OC(=O)C(C)C)[C@H]1OC(=O)C(C)C (stereo partly drawn) [LOIB, α,β Lactose Octaisobutyrate]
